Experiments:
[1] = tested on: MV-4-11 cells; experiment: CCK-8 cell viability assay in MV-4-11 cells; format: cell-based; details: Homo sapiens, MV4-11, 72 h, 10% FBS, 3 days
Method: MV-4-11 cells were obtained from University of Michigan. Cells were maintained in the RPMI-1640 medium with 10% FBS and 1% P/S at 37° C. and an atmosphere of 5% CO2.
• The effect of representative Compounds of the Disclosure on cell viability was determined using Cell Counting Kit-8 (CCK-8) assay (Shanghai Life iLab Biotech) according to the manufacturer's instructions. Each tested compound was serially diluted in culture medium, and 100 μL of the compound dilution was added to the corresponding well of the cell plate. 100 μL of MV-4-11 cell suspension (20000 cells/well) in culture medium were seeded into 96-well plates. The cells were incubated at 37° C. in an atmosphere of 5% CO2 for 3 days. At the end of 3 days, 20 μL of CCK-8 solution was added to each well of the plate and incubated for 1-4 hours. The plates were read at 450 nm on the Biotek plate reader. The readings were normalized to the vehicle cells, and the IC50 was calculated using GraphPad Prism 8 software.

[2] = tested on: RS4; 11Bcl-2-G101V cells; experiment: CellTiter-Glo (CTG) cell viability assay in RS4;11-Bcl-2-G101V cells; format: cell-based; details: 72 h, 10% FBS, 3 days
Method: RS4; 11Bcl-2-G101V, RS4; 11Bcl-2-D103E, RS4; 11Bcl-2-V156D and RS4; 11Bcl-2-G101V-D103E cells were obtained from Cobioer Biosciences. Cells were maintained in the RPMI-1640 medium with 10% FBS, 1% P/S and puromycin (1 μg/mL) at 37° C. and an atmosphere of 5% CO2.
• The effect of representative Compounds of the Disclosure on cell viability was determined using CellTiter-Glo® (CTG) luminescent cell viability assay (Promega, USA) according to the manufacturer's instructions. 95 μL of cell suspension (10000 cells/well) in culture medium were seeded into 96-well plates and cultured 4 hours. Each tested compound was serially diluted in blank culture medium, and 5 μL of the compound dilution was added to the corresponding well of the cell plate. After the addition of the tested compound, the cells were incubated at 37° C. in an atmosphere of 5% CO2 for 3 days. At the end of 3 days, 30 μL of CTG solution was added to each well of the plate and mix contents for 2 minutes on an orbital shaker. Allow the plate to incubate at room temperature for 15 mins to stabilize signal and record RLU on the Biotek plate reader. The readings were normalized to the vehicle cells, and the IC50 was calculated using GraphPad Prism 8 software.

Compound | IC50 [1] | IC50 [2]
CC1(C)CCC(CN2CCN(c3ccc(C(=O)NS(=O)(=O)c4ccc(NC[C@H]5COCCO5)c([N+](=O)[O-])c4)c(Oc4cnc5[nH]ccc5c4)c3)CC2)=C(c2cc(CN3CC4(C3)CN(S(C)(=O)=O)C4)cs2)C1 [Example 27] | 126 nM | 1040 nM
CC1(C)CCC(CN2CCN(c3ccc(C(=O)NS(=O)(=O)c4ccc(NC[C@H]5CC[C@](C)(O)CC5)c([N+](=O)[O-])c4)c(Oc4cnc5[nH]ccc5c4)c3)CC2)=C(c2cc(C#Cc3ccc(F)cc3)cs2)C1 [Example 61, 2-((1H-pyrrolo[2,3-b]pyridin-5-yl)oxy)-4-(4-((2-(4-((4-fluorophenyl)ethynyl)thiophen-2-yl)-4,4-dimethylcyclohex-1-en-1-yl)methyl)piperazin-1-yl)-N-((4-((((1r,4r)-4-hydroxy-4-methylcyclohexyl)methyl)amino)-3-nitrophenyl)sulfonyl)benzamide] | 107 nM | 3180 nM
COC(C)(C)c1ccc(-c2csc(C3=C(CN4CCN(c5ccc(C(=O)NS(=O)(=O)c6ccc(NC[C@H]7CC[C@](C)(O)CC7)c([N+](=O)[O-])c6)c(Oc6cnc7[nH]ccc7c6)c5)CC4)CCC(C)(C)C3)c2)c(F)c1 [Example 76, 2-((1H-pyrrolo[2,3-b]pyridin-5-yl)oxy)-4-(4-((2-(4-(2-fluoro-4-(2-methoxypropan-2-yl)phenyl)thiophen-2-yl)-4,4-dimethylcyclohex-1-en-1-yl)methyl)piperazin-1-yl)-N-((4-((((1r,4r)-4-hydroxy-4-methylcyclohexyl)methyl)amino)-3-nitrophenyl)sulfonyl)benzamide] | 95 nM | 1700 nM
CC(C)c1cscc1C1=C(CN2CCN(c3ccc(C(=O)NS(=O)(=O)c4ccc(NCC5CCOCC5)c([N+](=O)[O-])c4)c(Oc4cnc5[nH]ccc5c4)c3)CC2)CCC(C)(C)C1 [Example 7, 2-((1H-pyrrolo[2,3-b]pyridin-5-yl)oxy)-4-(4-((2-(4-isopropylthiophen-3-yl)-4,4-dimethylcyclohex-1-en-1-yl)methyl)piperazin-1-yl)-N-((3-nitro-4-(((tetrahydro-2H-pyran-4-yl)methyl)amino)phenyl)sulfonyl)benzamide] | 209 nM | 4270 nM
CC(C)c1cscc1C1=C(CN2CCN(c3ccc(C(=O)NS(=O)(=O)c4ccc(NC[C@H]5COCCO5)c([N+](=O)[O-])c4)c(Oc4cnc5[nH]ccc5c4)c3)CC2)CCC(C)(C)C1 [Example 9, (S)—N-((4-(((1,4-dioxan-2-yl)methyl)amino)-3-nitrophenyl)sulfonyl)-2-((1H-pyrrolo[2,3-b]pyridin-5-yl)oxy)-4-(4-((2-(4-isopropylthiophen-3-yl)-4,4-dimethylcyclohex-1-en-1-yl)methyl)piperazin-1-yl)benzamide] | 167 nM | 5420 nM
CC1(C)CCC(CN2CCN(c3ccc(C(=O)NS(=O)(=O)c4ccc(NC[C@H]5CC[C@](C)(O)CC5)c([N+](=O)[O-])c4)c(Oc4cnc5[nH]ccc5c4)c3)CC2)=C(c2cc(-c3c(Cl)cc(C(C)(C)O)cc3Cl)cs2)C1 [Example 66, 2-((1H-pyrrolo[2,3-b]pyridin-5-yl)oxy)-4-(4-((2-(4-(2,6-dichloro-4-(2-hydroxypropan-2-yl)phenyl)thiophen-2-yl)-4,4-dimethylcyclohex-1-en-1-yl)methyl)piperazin-1-yl)-N-((4-((((1r,4r)-4-hydroxy-4-methylcyclohexyl)methyl)amino)-3-nitrophenyl)sulfonyl)benzamide] | 132 nM | 361 nM
Cc1cc(C(C)(C)O)cc(C)c1-c1csc(C2=C(CN3CCN(c4ccc(C(=O)NS(=O)(=O)c5ccc(NC[C@H]6CC[C@](C)(O)CC6)c([N+](=O)[O-])c5)c(Oc5cnc6[nH]ccc6c5)c4)CC3)CCC(C)(C)C2)c1 [Example 65, 2-((1H-pyrrolo[2,3-b]pyridin-5-yl)oxy)-N-((4-((((1r,4r)-4-hydroxy-4-methylcyclohexyl)methyl)amino)-3-nitrophenyl)sulfonyl)-4-(4-((2-(4-(4-(2-hydroxypropan-2-yl)-2,6-dimethylphenyl)thiophen-2-yl)-4,4-dimethylcyclohex-1-en-1-yl)methyl)piperazin-1-yl)benzamide] | 192 nM | 598 nM
CC(C)c1ccc(C2=C(CN3CCN(c4ccc(C(=O)NS(=O)(=O)c5ccc(NCC6CCOCC6)c([N+](=O)[O-])c5)c(Oc5cnc6[nH]ccc6c5)c4)CC3)CCC(C)(C)C2)s1 [Example 12, 2-((1H-pyrrolo[2,3-b]pyridin-5-yl)oxy)-4-(4-((2-(5-isopropylthiophen-2-yl)-4,4-dimethylcyclohex-1-en-1-yl)methyl)piperazin-1-yl)-N-((3-nitro-4-(((tetrahydro-2H-pyran-4-yl)methyl)amino)phenyl)sulfonyl)benzamide] | 164 nM | 4030 nM
CC1(C)CCC(CN2CCN(c3ccc(C(=O)NS(=O)(=O)c4ccc(NC[C@H]5COCCO5)c([N+](=O)[O-])c4)c(Oc4cnc5[nH]ccc5c4)c3)CC2)=C(c2cc(-c3c(F)cc(F)c4cc[nH]c34)cs2)C1 [Example 57, (S)—N-((4-(((1,4-dioxan-2-yl)methyl)amino)-3-nitrophenyl)sulfonyl)-2-((1H-pyrrolo[2,3-b]pyridin-5-yl)oxy)-4-(4-((2-(4-(4,6-difluoro-1H-indol-7-yl)thiophen-2-yl)-4,4-dimethylcyclohex-1-en-1-yl)methyl)piperazin-1-yl)benzamide] | 1210 nM | 5810 nM
Cc1csc(C2=C(CN3CCN(c4ccc(C(=O)NS(=O)(=O)c5ccc(NCC6CCOCC6)c([N+](=O)[O-])c5)c(Oc5cnc6[nH]ccc6c5)c4)CC3)CCC(C)(C)C2)c1 [Example 5, 2-((1H-pyrrolo[2,3-b]pyridin-5-yl)oxy)-4-(4-((4,4-dimethyl-2-(4-methylthiophen-2-yl)cyclohex-1-en-1-yl)methyl)piperazin-1-yl)-N-((3-nitro-4-(((tetrahydro-2H-pyran-4-yl)methyl)amino)phenyl)sulfonyl)benzamide] | 79 nM | 3820 nM
CC1(C)CCC(CN2CCN(c3ccc(C(=O)NS(=O)(=O)c4ccc(NC[C@H]5CC[C@](C)(O)CC5)c([N+](=O)[O-])c4)c(Oc4cnc5[nH]ccc5c4)c3)CC2)=C(c2cc(-c3c(F)cc(C4(O)CCC4)cc3F)cs2)C1 [Example 77, 2-((1H-pyrrolo[2,3-b]pyridin-5-yl)oxy)-4-(4-((2-(4-(2,6-difluoro-4-(1-hydroxycyclobutyl)phenyl)thiophen-2-yl)-4,4-dimethylcyclohex-1-en-1-yl)methyl)piperazin-1-yl)-N-((4-((((1r,4r)-4-hydroxy-4-methylcyclohexyl)methyl)amino)-3-nitrophenyl)sulfonyl)benzamide] | 25 nM | 490 nM
Cc1ccsc1C1=C(CN2CCN(c3ccc(C(=O)NS(=O)(=O)c4ccc(NCC5CCOCC5)c([N+](=O)[O-])c4)c(Oc4cnc5[nH]ccc5c4)c3)CC2)CCC(C)(C)C1 [Example 4, 2-((1H-pyrrolo[2,3-b]pyridin-5-yl)oxy)-4-(4-((4,4-dimethyl-2-(3-methylthiophen-2-yl)cyclohex-1-en-1-yl)methyl)piperazin-1-yl)-N-((3-nitro-4-(((tetrahydro-2H-pyran-4-yl)methyl)amino)phenyl)sulfonyl)benzamide] | 54 nM | 3250 nM
CC1(C)CCC(CN2CCN(c3ccc(C(=O)NS(=O)(=O)c4ccc(NC[C@H]5COCCO5)c([N+](=O)[O-])c4)c(Oc4cnc5[nH]ccc5c4)c3)CC2)=C(c2cc(-c3ccc(F)cn3)cs2)C1 [Example 52, (S)—N-((4-(((1,4-dioxan-2-yl)methyl)amino)-3-nitrophenyl)sulfonyl)-2-((1H-pyrrolo[2,3-b]pyridin-5-yl)oxy)-4-(4-((2-(4-(5-fluoropyridin-2-yl)thiophen-2-yl)-4,4-dimethylcyclohex-1-en-1-yl)methyl)piperazin-1-yl)benzamide] | 296 nM | 4990 nM
CC(C)c1ccc(C2=C(CN3CCN(c4ccc(C(=O)NS(=O)(=O)c5ccc(NC[C@H]6COCCO6)c([N+](=O)[O-])c5)c(Oc5cnc6[nH]ccc6c5)c4)CC3)CCC(C)(C)C2)s1 [Example 14, (S)—N-((4-(((1,4-dioxan-2-yl)methyl)amino)-3-nitrophenyl)sulfonyl)-2-((1H-pyrrolo[2,3-b]pyridin-5-yl)oxy)-4-(4-((2-(5-isopropylthiophen-2-yl)-4,4-dimethylcyclohex-1-en-1-yl)methyl)piperazin-1-yl)benzamide] | 98 nM | 2660 nM

From patent publication US12577245B2, “Sulfonyl benzamide derivatives as Bcl-2 inhibitors” (ASCENTAGE PHARMA (SUZHOU) CO., LTD., priority 2021, dated 2026)
